From patent US20240269139A1, “COMPOUNDS FOR TARGETED PROTEIN DEGRADATION OF KINASES” (DANA-FARBER CANCER INSTITUTE, INC., priority 2020, published 2024)
Read-outs that look alike come from different tables or passages of the source.

Legend:
[1] = system: MM1.S cells; test: CellTiter-Glo viability assay; assay type: cell-based, H. sapiens; details: MM.1S multiple myeloma cell line, 72 hours
Procedure: MM1.S (purchased from ATCC) was seeded in a 96-well microplate at 10,000 cells per […] well in RPMI-1(40 media supplemented with 10% FBS and incubated with compounds (final DMSO concentration at 0.1%). Relative cell viability was measured 72 hours after drug addition using CellTiter-Glo® (Promega) according to the manufacturer's protocol. Each analysis was performed in biological triplicate.

[2] = target: protein kinases in MOLT-4 cells (Homo sapiens, UniProt O14965); test: Whole cell quantitative proteomics in MOLT-4 cells; details: MOLT-4, 1 μM, 5 h; validated by immunoblotting
Procedure: (§1) Whole cell multiplexed quantitative proteomics was employed to measure changes in abundance of the proteome in response to treatment with each of the kinase degrader molecules relative to DMSO (Table 1, Appendix I).
(§2) Cells were treated with DMSO (biological triplicate) or degrader at indicated dose and time and cells were harvested by centrifugation. […] Precipitated protein was resuspended in 4 M Urea, 50 mM HEPES pH 7.4, followed by dilution to 1 M urea with the addition of 200 mM EPPS, pH 8. Proteins were first digested with LysC (1:50: enzyme:protein) for 12 hours at room temperature. The LysC digestion was diluted to 0.5 M Urea with 200 mM EPPS pH 8 followed by digestion with trypsin (1:50; enzyme:protein) for 6 hours at 37° C. Tandem mass tag (TMT) reagents (Thermo Fisher Scientific) were dissolved in anhydrous acetonitrile (ACN) according to manufacturer's instructions. […] The 10, 11, or 16-plex labeling reactions were performed for 1.5 hours at room temperature and the reaction quenched by the addition of hydroxylamine to a final concentration of 0.3% for 15 minutes at room temperature. The sample channels were combined at a 1:1 ratio, desalted using C18 solid phase extraction cartridges (Waters®) and analyzed by LC-MS for channel ratio comparison. Samples were then combined using the adjusted volumes determined in the channel ratio analysis and dried down in a speed vacuum. The combined sample was then resuspended in 1% formic acid, and acidified (pH 2-3) before being subjected to desalting with C18 SPE (Sep-Pak®, Waters®). Samples were then offline fractionated into 96 fractions by high pH reverse-phase HPLC (Agilent® LC1260) through an aeris peptide xb-c18 column (Phenomenex®) with mobile phase A containing 5% acetonitrile and 10 mM NH4HCO3 in LC-MS grade H2O, and mobile phase B containing 90% acetonitrile and 10 mM NH4HCO3 in LC-MS grade H2O (both pH 8.0). The 96 resulting fractions were then pooled in a non-continuous manner into 24 fractions and desalted using C18 solid phase extraction plates (SOLA®, Thermo Fisher Scientific) followed by subsequent mass spectrometry analysis.
(§3) Data were collected using an Orbitrap Fusion™ Lumos™ mass spectrometer (Thermo Fisher Scientific, San Jose, CA, USA) coupled with a Proxeon EASY-nLC™ 1200 LC pump (Thermo Fisher Scientific) or an Orbitrap Eclipse™ Tribrid™ mass spectrometer (Thermo Fisher Scientific, San Jose, CA, USA) coupled with an UltiMate™ 3000 RSLCnano System. Peptides were separated on an EasySpray™ ES803a/ES803a.rev2 75 μm inner diameter microcapillary column (ThermoFisher Scientific).
(§4) Data dependent MS2 spectra were acquired in the ion trap with a normalized collision energy (NCE) set at 35%, AGC target set to 1.8×10^4 and a maximum injection time of 120 ms. MS3 scans were acquired in the Orbitrap with HCD collision energy set to 55%. AGC target set to 2×10^5, maximum injection time of 150 ms, resolution at 50,000 and with a maximum synchronous precursor selection (SPS) precursors set to 10.
(§5) Proteome Discoverer™ 2.1, 2.2 or 2.4 (Thermo Fisher Scientific) was used for .RAW file processing and controlling peptide and protein level false discovery rates, assembling proteins from peptides, and protein quantification from peptides.

[3] = system: protein kinases (human kinome); assay type: cell-based; details: for kinases the bifunctional compound degrades: as stated for the structure in the embodiments; for Kinase hits: kinases significantly downregulated vs DMSO (fold change cutoff −1.25, P-value<0.01), ≤8 h, 0.1-5 μM degrader, 7 cell lines; for Total no. kinase hits: number of degraded kinases per library compound
[4] = target: protein kinases (human kinome) (Homo sapiens, UniProt P53350); assay type: cell-based; details: PLK1 P53350; experiment wp168
[5] = target: protein kinases (human kinome) (Homo sapiens, UniProt P35790); assay type: cell-based; details: CHKA P35790; experiment wp168
[6] = target: protein kinases (human kinome) (Homo sapiens, UniProt P49759); assay type: cell-based
Sequence of protein kinases (human kinome) (Homo sapiens, UniProt P49759) (P49759 whole entry): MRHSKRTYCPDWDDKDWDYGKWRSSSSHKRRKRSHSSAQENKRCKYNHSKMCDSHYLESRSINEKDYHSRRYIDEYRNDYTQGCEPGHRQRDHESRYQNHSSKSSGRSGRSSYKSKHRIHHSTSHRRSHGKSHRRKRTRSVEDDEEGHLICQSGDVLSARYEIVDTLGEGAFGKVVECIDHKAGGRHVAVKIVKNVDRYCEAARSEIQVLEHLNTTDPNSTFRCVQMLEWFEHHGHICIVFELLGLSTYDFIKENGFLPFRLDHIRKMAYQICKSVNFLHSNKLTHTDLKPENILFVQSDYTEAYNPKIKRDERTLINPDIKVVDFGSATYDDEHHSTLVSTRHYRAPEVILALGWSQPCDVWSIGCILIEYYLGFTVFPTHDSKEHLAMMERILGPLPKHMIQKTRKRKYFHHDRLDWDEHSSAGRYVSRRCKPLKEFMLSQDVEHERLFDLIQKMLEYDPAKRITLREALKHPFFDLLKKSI

[7] = target: protein kinases (human kinome) (Homo sapiens, UniProt P51451); assay type: cell-based
[8] = target: protein kinases (human kinome) (Homo sapiens, UniProt P53667); assay type: cell-based; details: LIMK1 (P53667-1), experiment wp168
Sequence of protein kinases (human kinome) (Homo sapiens, UniProt P53667) (P53667 whole entry): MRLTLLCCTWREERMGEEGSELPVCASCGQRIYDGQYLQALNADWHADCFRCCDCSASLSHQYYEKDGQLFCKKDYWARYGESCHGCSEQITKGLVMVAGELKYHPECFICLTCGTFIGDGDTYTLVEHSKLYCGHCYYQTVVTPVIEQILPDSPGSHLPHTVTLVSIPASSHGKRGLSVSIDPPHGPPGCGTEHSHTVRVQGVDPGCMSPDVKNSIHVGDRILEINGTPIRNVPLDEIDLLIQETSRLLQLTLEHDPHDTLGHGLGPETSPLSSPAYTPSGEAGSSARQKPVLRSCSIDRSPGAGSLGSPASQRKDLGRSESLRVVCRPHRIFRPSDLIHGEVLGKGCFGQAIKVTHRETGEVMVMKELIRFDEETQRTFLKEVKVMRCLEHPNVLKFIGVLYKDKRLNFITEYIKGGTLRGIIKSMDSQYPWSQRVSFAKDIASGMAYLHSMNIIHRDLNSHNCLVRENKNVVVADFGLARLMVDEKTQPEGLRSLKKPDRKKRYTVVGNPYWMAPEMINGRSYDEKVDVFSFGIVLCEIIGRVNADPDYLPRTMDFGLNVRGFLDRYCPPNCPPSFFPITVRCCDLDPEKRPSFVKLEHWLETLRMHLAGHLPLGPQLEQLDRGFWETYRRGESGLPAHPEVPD

[9] = target: protein kinases (human kinome) (Homo sapiens, UniProt Q9H0K1); assay type: cell-based; details: experiment wp168
Sequence of protein kinases (human kinome) (Homo sapiens, UniProt Q9H0K1) (Q9H0K1 whole entry): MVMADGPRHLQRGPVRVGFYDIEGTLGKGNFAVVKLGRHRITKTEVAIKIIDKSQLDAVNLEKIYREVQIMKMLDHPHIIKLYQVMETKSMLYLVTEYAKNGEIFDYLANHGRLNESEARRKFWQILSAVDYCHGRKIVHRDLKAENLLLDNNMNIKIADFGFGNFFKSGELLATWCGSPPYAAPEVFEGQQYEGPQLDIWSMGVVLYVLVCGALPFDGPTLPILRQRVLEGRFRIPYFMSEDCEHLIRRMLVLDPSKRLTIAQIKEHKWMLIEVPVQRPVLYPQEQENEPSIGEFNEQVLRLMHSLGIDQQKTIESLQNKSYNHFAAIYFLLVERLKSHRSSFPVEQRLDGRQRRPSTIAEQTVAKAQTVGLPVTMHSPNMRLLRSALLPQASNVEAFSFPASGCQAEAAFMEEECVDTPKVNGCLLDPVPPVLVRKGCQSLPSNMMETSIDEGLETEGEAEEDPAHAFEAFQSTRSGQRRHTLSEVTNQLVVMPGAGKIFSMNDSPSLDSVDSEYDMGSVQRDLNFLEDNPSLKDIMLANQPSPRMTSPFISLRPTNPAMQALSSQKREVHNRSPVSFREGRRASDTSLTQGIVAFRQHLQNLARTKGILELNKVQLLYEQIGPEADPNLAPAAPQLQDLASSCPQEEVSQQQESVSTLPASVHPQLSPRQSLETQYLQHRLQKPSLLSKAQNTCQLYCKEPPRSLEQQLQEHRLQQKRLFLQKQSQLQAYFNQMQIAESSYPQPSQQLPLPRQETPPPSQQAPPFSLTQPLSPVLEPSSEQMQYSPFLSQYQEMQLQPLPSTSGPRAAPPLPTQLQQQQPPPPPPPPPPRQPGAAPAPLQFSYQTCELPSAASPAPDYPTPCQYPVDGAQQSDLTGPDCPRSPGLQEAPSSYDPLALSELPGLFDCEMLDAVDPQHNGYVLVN

[10] = target: protein kinases (human kinome) (Homo sapiens, UniProt P12931); assay type: cell-based
Sequence of protein kinases (human kinome) (Homo sapiens, UniProt P12931) (P12931 whole entry): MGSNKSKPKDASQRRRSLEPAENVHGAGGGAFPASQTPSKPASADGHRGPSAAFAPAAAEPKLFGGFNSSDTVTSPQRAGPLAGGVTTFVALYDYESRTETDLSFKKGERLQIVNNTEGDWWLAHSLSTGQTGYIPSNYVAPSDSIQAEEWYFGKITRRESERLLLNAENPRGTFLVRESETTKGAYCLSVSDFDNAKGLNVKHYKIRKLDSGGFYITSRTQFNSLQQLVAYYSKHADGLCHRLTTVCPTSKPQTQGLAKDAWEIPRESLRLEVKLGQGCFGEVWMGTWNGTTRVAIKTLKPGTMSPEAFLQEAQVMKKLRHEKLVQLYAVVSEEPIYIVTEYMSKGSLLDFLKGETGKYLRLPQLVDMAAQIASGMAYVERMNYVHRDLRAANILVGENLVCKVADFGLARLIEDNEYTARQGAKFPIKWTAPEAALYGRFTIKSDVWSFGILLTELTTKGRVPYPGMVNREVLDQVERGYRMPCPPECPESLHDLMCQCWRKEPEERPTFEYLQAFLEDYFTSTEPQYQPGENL

[11] = target: protein kinases (human kinome) (Homo sapiens, UniProt P16591); assay type: cell-based
[12] = target: protein kinases (human kinome) (Homo sapiens, UniProt P07947); assay type: cell-based; details: YES1 (P07947), experiment wp168
[13] = target: protein kinases (human kinome) (Homo sapiens, UniProt P11802); assay type: cell-based; details: experiment wp168
Sequence of protein kinases (human kinome) (Homo sapiens, UniProt P11802) (P11802 whole entry): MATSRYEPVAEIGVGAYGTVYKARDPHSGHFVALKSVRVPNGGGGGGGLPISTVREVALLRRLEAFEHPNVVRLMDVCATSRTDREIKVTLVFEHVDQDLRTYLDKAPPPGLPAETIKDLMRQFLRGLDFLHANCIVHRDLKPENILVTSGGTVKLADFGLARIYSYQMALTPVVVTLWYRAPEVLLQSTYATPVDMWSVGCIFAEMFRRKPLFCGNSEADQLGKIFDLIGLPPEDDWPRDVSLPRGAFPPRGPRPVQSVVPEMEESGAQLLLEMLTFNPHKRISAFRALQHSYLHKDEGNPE

[14] = target: protein kinases (human kinome) (Homo sapiens, UniProt P45984); assay type: cell-based; details: MAPK9 P45984-1; experiment wp168
[15] = target: protein kinases (human kinome) (Homo sapiens, UniProt P04183); assay type: cell-based; details: TK1 (P04183); experiment wp168
[16] = target: protein kinases (human kinome) (Homo sapiens, UniProt Q9HBH9); assay type: cell-based
Sequence of protein kinases (human kinome) (Homo sapiens, UniProt Q9HBH9) (Q9HBH9 whole entry): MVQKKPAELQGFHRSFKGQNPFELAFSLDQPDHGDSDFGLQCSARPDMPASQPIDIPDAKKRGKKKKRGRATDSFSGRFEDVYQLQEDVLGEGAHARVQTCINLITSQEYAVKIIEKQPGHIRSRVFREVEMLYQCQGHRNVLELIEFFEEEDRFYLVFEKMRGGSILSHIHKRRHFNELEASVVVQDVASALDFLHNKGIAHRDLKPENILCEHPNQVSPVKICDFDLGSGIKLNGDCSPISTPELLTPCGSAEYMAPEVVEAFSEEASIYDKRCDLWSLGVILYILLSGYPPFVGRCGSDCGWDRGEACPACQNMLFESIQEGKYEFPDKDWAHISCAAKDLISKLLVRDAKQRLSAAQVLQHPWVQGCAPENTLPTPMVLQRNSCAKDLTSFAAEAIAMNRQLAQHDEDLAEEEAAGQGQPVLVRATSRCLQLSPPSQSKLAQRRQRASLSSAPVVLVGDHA

[17] = target: T1, protein kinases (human kinome) (Homo sapiens, UniProt Q8TAS1); assay type: cell-based; details: experiment wp168
T1 sequence (Q8TAS1 1-419): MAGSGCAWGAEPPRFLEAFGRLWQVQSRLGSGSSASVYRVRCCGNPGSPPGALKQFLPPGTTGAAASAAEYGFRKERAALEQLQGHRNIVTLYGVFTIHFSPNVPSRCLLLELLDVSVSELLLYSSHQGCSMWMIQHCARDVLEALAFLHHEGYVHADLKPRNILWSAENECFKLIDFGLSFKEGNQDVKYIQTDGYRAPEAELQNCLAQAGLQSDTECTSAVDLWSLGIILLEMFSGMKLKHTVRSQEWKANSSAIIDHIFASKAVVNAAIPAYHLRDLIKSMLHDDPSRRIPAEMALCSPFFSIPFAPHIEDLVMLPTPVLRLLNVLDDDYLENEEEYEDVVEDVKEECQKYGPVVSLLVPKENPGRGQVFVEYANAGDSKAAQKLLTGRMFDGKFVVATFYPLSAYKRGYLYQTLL

[18] = target: protein kinases (human kinome) (Homo sapiens, UniProt P41240); assay type: cell-based; details: experiment wp168
[19] = target: protein kinases (human kinome) (Homo sapiens, UniProt Q07912); assay type: cell-based
Sequence of protein kinases (human kinome) (Homo sapiens, UniProt Q07912) (Q07912 whole entry): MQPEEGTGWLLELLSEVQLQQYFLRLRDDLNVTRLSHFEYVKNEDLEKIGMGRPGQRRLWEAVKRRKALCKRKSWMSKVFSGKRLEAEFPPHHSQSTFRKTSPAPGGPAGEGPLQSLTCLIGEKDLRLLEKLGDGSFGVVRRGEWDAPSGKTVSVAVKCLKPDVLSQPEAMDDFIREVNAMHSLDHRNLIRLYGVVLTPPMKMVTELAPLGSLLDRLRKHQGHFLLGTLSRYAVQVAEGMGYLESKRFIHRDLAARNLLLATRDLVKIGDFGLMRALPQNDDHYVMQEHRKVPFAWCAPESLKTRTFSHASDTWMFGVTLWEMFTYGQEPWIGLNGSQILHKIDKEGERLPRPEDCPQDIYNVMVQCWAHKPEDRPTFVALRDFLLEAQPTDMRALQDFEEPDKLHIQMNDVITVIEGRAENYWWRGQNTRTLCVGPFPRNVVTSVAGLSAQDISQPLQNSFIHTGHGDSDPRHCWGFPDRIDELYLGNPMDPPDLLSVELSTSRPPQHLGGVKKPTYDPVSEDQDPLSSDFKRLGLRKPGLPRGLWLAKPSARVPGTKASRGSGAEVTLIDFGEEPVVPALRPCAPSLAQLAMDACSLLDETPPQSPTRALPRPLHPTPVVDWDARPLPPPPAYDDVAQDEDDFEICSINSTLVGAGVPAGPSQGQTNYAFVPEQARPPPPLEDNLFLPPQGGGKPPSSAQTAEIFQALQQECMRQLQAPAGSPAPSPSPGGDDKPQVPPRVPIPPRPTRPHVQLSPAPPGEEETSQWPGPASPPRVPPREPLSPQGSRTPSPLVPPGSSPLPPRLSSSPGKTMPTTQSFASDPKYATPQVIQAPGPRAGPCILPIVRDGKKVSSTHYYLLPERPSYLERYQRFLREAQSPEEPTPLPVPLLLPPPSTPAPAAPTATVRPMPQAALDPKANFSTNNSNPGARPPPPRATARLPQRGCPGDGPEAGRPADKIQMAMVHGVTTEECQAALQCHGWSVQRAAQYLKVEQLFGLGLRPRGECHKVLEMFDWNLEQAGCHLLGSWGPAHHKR

[20] = target: protein kinases (human kinome) (Homo sapiens, UniProt P06239); assay type: cell-based; details: experiment wp168
Sequence of protein kinases (human kinome) (Homo sapiens, UniProt P06239) (P06239 whole entry): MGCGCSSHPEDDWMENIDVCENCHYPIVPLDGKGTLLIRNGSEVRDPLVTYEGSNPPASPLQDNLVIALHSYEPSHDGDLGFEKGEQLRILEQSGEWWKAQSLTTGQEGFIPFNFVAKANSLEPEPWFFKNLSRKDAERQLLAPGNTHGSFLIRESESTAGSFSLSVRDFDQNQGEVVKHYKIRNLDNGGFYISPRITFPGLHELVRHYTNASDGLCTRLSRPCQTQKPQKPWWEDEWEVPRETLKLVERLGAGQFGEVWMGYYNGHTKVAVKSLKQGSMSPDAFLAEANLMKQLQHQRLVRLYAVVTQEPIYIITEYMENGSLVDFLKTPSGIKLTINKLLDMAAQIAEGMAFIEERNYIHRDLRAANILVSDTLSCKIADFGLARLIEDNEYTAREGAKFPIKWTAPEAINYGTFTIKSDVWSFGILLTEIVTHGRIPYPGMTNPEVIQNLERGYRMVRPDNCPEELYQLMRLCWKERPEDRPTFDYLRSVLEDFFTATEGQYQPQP

[21] = target: extended human kinome (kinase-like proteins) (Homo sapiens, UniProt Q16875); test: Whole cell quantitative proteomics: extended kinome hits; details: Accession Q16875; experiment wp168
Procedure: as §1, §2, §3, §4, §5

[22] = target: protein kinases in MOLT-4 cells (Homo sapiens, UniProt P41240); test: Whole cell quantitative proteomics in MOLT-4 cells; details: compared with the library; MOLT-4, 1 μM, 5 h
Procedure: as §1, §2, §3, §4, §5

[23] = system: protein kinases in MOLT-4 cells; test: Whole cell quantitative proteomics in MOLT-4 cells; details: MOLT-4, 1 μM, 5 h
Procedure: as §1, §2, §3, §4, §5

[24] = Experiment wp168, direction down

## COc1cc(Nc2ncc3c(n2)-c2ccc(Cl)cc2C(c2c(F)cccc2OC)=NC3)ccc1C(=O)NCCCOCCOCCOCCCNC(=O)COc1cccc2c1C(=O)N(C1CCC(=O)NC1=O)C2=O (stereo not shown) [dAURK-4, -((9-chloro-7-(2-fluoro-6-methoxyphenyl)-5H-benzo[c]pyrimido[4,5-e]azepin-2-yl)amino)-N-(1-((2-(2,6-dioxopiperidin-3-yl)-1,3-dioxoisoindolin-4-yl)oxy)-2-oxo-7,10,13-trioxa-3-2174 azahexadecan-16-yl)-2-methoxybenzamide]
[1]
  antiproliferative effects: superior antiproliferative effects over parental inhibitor alisertib
[2]
  degradation of AURKA: potent and selective degradation
[3]
  kinases the bifunctional compound degrades: AURKA and AURKB
  Kinase hits: AURKA, AURKB
  Total no. kinase hits: 2

## Cc1ccc(NC(=O)c2cccc(C(F)(F)F)c2)cc1N1Cc2cnc(Nc3ccc(N4CCN(CCOc5cccc6c5C(=O)N(C5CCC(=O)NC5=O)C6=O)CC4)nc3)nc2N(C)C1=O (stereo not shown) [DB0661]
[4]
  logFC: −0.3453
  logFC PLK1: −0.3453
[5]
  logFC: −0.3607
[6]; CLK1 P49759, experiment wp168
  logFC CLK1: −0.3319
[6]; Experiment wp168
  logFC of CLK1 (P49759): −0.3319
[7]; BLK (P51451), direction down, experiment wp168
  logFC BLK: −1.428
[7]; Experiment wp168, down
  logFC of BLK (P51451): −1.428
[8]; direction down
  logFC LIMK1: −1.116
[8]; down
  logFC LIMK1: −1.116
[9]; Accession Q9H0K1
  logFC of SIK2: −0.3628
[9]; direction of change down
  logFC SIK2 (Q9H0K1): −0.3628
[10]; Accession P12931, experiment wp168
  logFC of SRC: −0.6685
[10]; Experiment wp168
  logFC of SRC (P12931): −0.6685
[11]; Experiment wp168, down
  logFC of FER (P16591-1): −0.6143
[11]; FER P16591-1, experiment wp168
  logFC of FER: −0.6143
[12]
  logFC: −0.5229
[12]; direction down
  logFC: −0.5229
[3]; [24]
  logFC MAPK8 (P45983-4): −0.5033
[3]; MAPK8 P45983-4, experiment wp168
  logFC MAPK8: −0.5033
[3]; PTK2B (Q14289-2), experiment wp168, direction down
  logFC: −1.935
[3]; PTK2B, accession Q14289-2, experiment wp168, direction of change down
  logFC PTK2B: −1.935
[3]
  kinases the bifunctional compound degrades: BLK, CDK4, CLK1, CSK, FER, LCK, LIMK1, MAPK8, MAPK9, MKNK2, PLK1, PTK2B, SIKA2, SRC, TNK2, UHMK1, and YES1
  Kinase hits: BLK, CDK4, CLK1, CSK, FER, LCK, LIMK1, MAPK8, MAPK9, MKNK2, PLK1, PTK2B, SIKa2, SRC, TNK2, UHMK1, YES1
  Total no. kinase hits: 17
[13]
  logFC CDK4 (P11802): −0.4978
[14]
  logFC: −1.961
  logFC MAPK9: −1.961
[15]
  logFC: −0.3523
[16]; [24]
  logFC MKNK2 (Q9HBH9-1): −0.5094
[16]; MKNK2 (Q9HBH9-1), experiment wp168
  logFC: −0.5094
[17]; Accession Q8TAS1, direction down
  logFC UHMK1: −0.416
[17]; UHMK1 (Q8TAS1)
  logFC UHMK1: −0.416
[18]; Accession P41240
  logFC of CSK: −1.526
[18]; CSK (P41240), down
  logFC CSK: −1.526
[19]; [24]
  logFC TNK2 (Q07912-1): −0.3873
[19]; TNK2 (Q07912-1), experiment wp168
  logFC TNK2: −0.3873
[20]; LCK P06239-1
  logFC LCK: −0.4717
[20]; LCK, accession P06239-1, direction of change down
  logFC LCK: −0.4717
[21]
  logFC PFKFB3: −0.4392

## Cc1nc(Nc2ncc(C(=O)Nc3c(C)cccc3Cl)s2)cc(N2CCN(CC(=O)NCCCCNC(=O)COc3cccc4c3C(=O)N(C3CCC(=O)NC3=O)C4=O)CC2)n1 (stereo not shown) [DB-3-291, N-(2-chloro-6-methylphenyl)-2-((6-(4-(2-((4-(2-((2-(2,6-dioxopiperidin-3-yl)-1,3-dioxoisoindolin-4-yl)oxy)acetamido)butyl)amino)-2-oxoethyl)piperazin-1-yl)-2-methylpyrimidin-4-yl)amino)thiazole-5-carboxamide]
[22]
  degradation of CSK: strongest degradation of CSK
[23]
  selectivity among CSK degraders: greatest selectivity
[3]
  kinases the bifunctional compound degrades: ABL2, BLK, CSK, and WEE1
  Kinase hits: ABL2, BLK, CSK, WEE1
  Total no. kinase hits: 4
